{"source": "patent US20240391923A1", "about": "“METHIONINE ADENOSYLTRANSFERASE 2A INHIBITOR FOR TREATING MTAP DELETION-TYPE CANCER” (SUZHOU GENHOUSE BIO CO., LTD., priority 2022, published 2024)", "key": {"[1]": {"system": "SDMA in HCT116-MTAP-knockout cell line", "experiment": "Cell symmetric dimethylarginine (SDMA) test, In-cell Western, HCT116-MTAP-knockout", "assay_type": "cell-based", "conditions": "Homo sapiens, 96 h"}, "[2]": {"system": "SDMA in human colon cancer cell line HCT116", "experiment": "Cell symmetric dimethylarginine (SDMA) test, In-cell Western, HCT116 (MTAP wild-type)", "assay_type": "cell-based", "conditions": "Homo sapiens, HCT-116, 96 h", "procedure,_shortened": "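HCT116 cells treated 4 days at 37° C with compound, top concentration 6 μM, 1:4 dilutions, 6 points, versus DMSO. Fixed cells stained for SDMA with DRAQ5 normalisation; 800/700 nm ratio after background subtraction fitted by non-linear regression for IC50.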"}, "[3]": {"system": "HCT116-MTAP-knockout (−/−) cell strain", "experiment": "Tumor cell proliferation inhibition assay (CellTiter-Glo), HCT116-MTAP-knockout (-/-)", "assay_type": "cell-based", "conditions": "Homo sapiens, 120 h, HCT116-MTAP-knockout (−/−) cells, 5-day treatment", "procedure,_shortened": "(§1)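 Read-out: CellTiter-Glo ATP luminescence after 5-day compound exposure at 37° C./5% CO2. Dosing began 24 h post-seeding, 10 μM top, 1:3 dilutions, 10 points; DMSO-treated cells as reference.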"}, "[4]": {"system": "HCT116-MTAP wild-type (+/+)-cell strain", "experiment": "Tumor cell proliferation inhibition assay (CellTiter-Glo), HCT116-MTAP wild-type (+/+)", "assay_type": "cell-based", "conditions": "Homo sapiens, 120 h, HCT116-MTAP wild-type (+/+) cells, 5-day treatment", "procedure,_shortened": "as §1"}, "DOHH-2 cell strain": {"system": "DOHH-2 cell strain", "experiment": "Tumor cell proliferation inhibition assay (CellTiter-Glo), DOHH-2", "assay_type": "cell-based", "conditions": "Homo sapiens, 120 h, DOHH-2 cells, 5-day treatment", "protocol": "After the HCT116-MTAP-knockout (−/−) cell strain, the HCT116-MTAP wild-type(+/+)-cell strain, the DOHH-2 cell strain, or the Hut-78 cell strain was treated with the test compound for 5 days, the ATP level was measured using a CellTiter-Glo kit of Promega to evaluate the inhibition of the test compound against the growth of the tumor cell strain.\nIn the present application, the HCT116-MTAP-knockout (−/−) cell strain, the HCT116-MTAP wild-type (+/+)-cell strain, the DOHH-2 cell strain, or the Hut-78 cell strain was seeded into a 96-well cell culture plate at an appropriate cell density. After 24 h, the cells were treated using the test compounds diluted 1:3 fold at the highest concentration of 10 μM for 10 gradients, and a DMSO treatment group was set up separately. The cells were cultured in a 37° C./5% CO2 incubator for 5 days."}, "[5]": {"experiment": "Pharmacokinetic test in mice (IV and PO)", "assay_type": "in vivo", "conditions": "mouse, plasma, BALB/c mice; for half-life: read-out: T½ (converted)"}, "hERG potassium current": {"biological_target": "T1, hERG potassium current (Homo sapiens, UniProt Q12809)", "T1 construct": "expressed in transfected cells; host or cells: HEK293, cultured under G418 selection", "T1 sequence (Q12809 whole entry)": "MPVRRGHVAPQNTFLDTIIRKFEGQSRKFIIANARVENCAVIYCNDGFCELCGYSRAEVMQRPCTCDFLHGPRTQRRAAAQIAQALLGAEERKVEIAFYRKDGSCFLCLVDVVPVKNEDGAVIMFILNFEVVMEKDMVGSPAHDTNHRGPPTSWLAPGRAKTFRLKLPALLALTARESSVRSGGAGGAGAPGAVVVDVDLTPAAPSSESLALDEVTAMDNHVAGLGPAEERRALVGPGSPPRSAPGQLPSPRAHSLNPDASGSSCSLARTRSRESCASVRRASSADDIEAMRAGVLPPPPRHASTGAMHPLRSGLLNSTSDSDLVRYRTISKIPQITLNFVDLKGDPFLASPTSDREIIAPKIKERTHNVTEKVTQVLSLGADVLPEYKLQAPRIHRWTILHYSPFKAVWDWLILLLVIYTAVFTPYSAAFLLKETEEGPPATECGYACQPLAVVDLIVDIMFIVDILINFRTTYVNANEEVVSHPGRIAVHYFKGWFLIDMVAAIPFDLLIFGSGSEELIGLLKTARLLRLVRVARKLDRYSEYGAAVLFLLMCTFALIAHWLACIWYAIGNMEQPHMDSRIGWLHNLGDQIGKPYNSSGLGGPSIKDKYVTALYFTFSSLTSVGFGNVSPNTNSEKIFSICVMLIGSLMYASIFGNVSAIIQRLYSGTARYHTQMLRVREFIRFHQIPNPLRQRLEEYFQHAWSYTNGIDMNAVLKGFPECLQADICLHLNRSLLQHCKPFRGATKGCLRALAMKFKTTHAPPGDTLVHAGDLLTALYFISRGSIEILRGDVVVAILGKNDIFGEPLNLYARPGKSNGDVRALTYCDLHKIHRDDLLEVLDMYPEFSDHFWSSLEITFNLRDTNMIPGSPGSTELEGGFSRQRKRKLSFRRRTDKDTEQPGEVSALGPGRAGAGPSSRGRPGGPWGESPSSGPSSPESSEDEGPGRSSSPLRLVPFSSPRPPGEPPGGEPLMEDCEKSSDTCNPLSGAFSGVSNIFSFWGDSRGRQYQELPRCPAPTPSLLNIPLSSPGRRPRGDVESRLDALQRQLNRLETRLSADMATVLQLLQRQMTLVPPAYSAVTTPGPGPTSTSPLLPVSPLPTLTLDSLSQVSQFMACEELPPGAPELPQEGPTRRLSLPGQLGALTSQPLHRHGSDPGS", "experiment": "hERG inhibition test (whole-cell patch clamp, Qpatch)", "assay_type": "cell-based", "conditions": "initial concentration 30 μM, 6 concentration points", "protocol": "The BEK293 cells were cultured in a DiVEM medium containing […] and 0.8 mg/mL G418 at 37° C. with 5% o CO2. The cells were digested by TrypLE™ Express and centrifuged. The cell density was adjusted to 2×10^6 cells/mL. The cells were gently mixed for 15-20 min using a shaker equilibrated at room temperature, and subjected to patch clamping on a machine. The medium of the prepared cells was replaced with extracellular fluid. The intracellular fluid and the extracellular fluid were taken from the fluid pool, and respectively added to the intracellular fluid pool and the cell and the test substance pool of the QPlate chip. The voltage stimulation of the whole-cell hERG potassium current was recorded by the whole-cell patch clamp, and the test data was collected and stored by Qpatch. The compound was diluted 3-fold at an initial concentration of 30 μM, and 6 concentration points were set, with each drug concentration being set for two administrations over a period of at least 5 min. The current detected in compound-free extracellular fluid for each cell was served as its own control group, and the detection was repeated at least twice independently using two cells per concentration. All electrophysiological experiments were performed at room temperature.\nFor data analysis, the current acted for each drug concentration and the current of the blank control were standardized\nand then the inhibition rate corresponding to each drug concentration was calculated\nThe mean and standard error were calculated for each concentration, and the half maximal inhibitory concentration of each compound was calculated:\nThe dose-dependent effect was fitted non-linearly using the above equation, wherein Y represents the inhibition rate, C represents the concentration of the test substance, IC50 is the half maximal inhibitory concentration, and HillSlope represents the Hill coefficient. Curve fitting and calculation of IC50 were performed by Graphpad software."}, "[6]": {"biological_target": "MAT2A recombinant protein (Homo sapiens, UniProt P31153)", "sequence (P31153 whole entry)": "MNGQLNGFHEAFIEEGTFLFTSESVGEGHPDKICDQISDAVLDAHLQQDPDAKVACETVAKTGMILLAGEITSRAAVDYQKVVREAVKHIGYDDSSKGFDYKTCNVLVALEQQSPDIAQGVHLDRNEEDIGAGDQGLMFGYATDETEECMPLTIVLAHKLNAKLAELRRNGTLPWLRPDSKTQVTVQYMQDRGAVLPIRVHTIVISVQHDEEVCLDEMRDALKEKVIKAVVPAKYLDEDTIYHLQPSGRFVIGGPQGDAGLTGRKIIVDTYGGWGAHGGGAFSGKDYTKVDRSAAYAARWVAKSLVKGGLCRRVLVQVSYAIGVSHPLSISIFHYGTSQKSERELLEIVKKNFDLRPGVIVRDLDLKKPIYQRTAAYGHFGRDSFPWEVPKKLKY", "experiment": "MAT2A inhibitory activity (malachite green colorimetric enzyme assay)", "assay_type": "biochemical", "procedure,_shortened": "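Recombinant human MAT2A with L-methionine and ATP in 50 mM HEPES pH 7.5, 50 mM KCl, 10 mM MgCl2, 10 mM DTT, 60 min at room temperature. Phosphate released detected by malachite green reagent (15 min) at 630 nm. Ten-point 1:3 series from 1000 nM final; IC50 by variable-slope non-linear regression.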"}, "[7]": {"experiment": "Saturation solubility of samples in FaSSIF solution", "assay_type": "physicochemical", "conditions": "FaSSIF pH 6.5, room temperature overnight", "protocol": "About 0.21 g of sodium hydroxide, about 2.24 g of sodium dihydrogen phosphate dihydrate, and 3.09 g of sodium chloride were weighed out and dissolved in 500 mL of water, and then the pH was adjusted to 6.5 with 1 N sodium hydroxide or 1 N hydrochloric acid. 112 mg of FaSSIF solid was weighed out and placed in a 50 mL volumetric flask, and the above buffer was added for dissolution, diluted to volume, mixed well, and left to stand at room temperature for 2 h or more.\n• Test sample: about 1 mg of the test sample was taken, and 1 mL of FaSSIF solution was added. The mixture was stirred at room temperature overnight and centrifuged, and the supernatant was collected and injected for analysis. • Control substance solution: about 1.5 mg of the test sample was precisely weighed out and placed in a 50 mL volumetric flask, and DMF was added for dissolution, diluted to volume, and mixed well.\n• Mobile phase A: 1000 mL of purified water was accurately weighed out, 1 mL of formic acid was added, and the mixture was mixed well and degassed with ultrasonic. • Mobile phase B: acetonitrile\nThe peak of the main component of the control substance and the peak of the test substance consistent with the retention time of the peak of the main component of the control substance were integrated, and the concentration thereof in the FaSSIF solution was calculated according to external standard method."}, "[8]": {"system": "Human colorectal adenocarcinoma cells HCT116-MTAP-KO", "experiment": "Mouse xenograft tumor pharmacodynamic model, HCT116-MTAP-KO", "assay_type": "in vivo", "conditions": "PO 200 mg/kg once a day, 28 days of administration", "protocol": "(§2) In this example, the in vivo efficacy of the compound in a mouse xenograft tumor model after intragastric (PO) administration was tested.\nHuman colorectal adenocarcinoma cells HCT116-MTAP-KO were cultured in monolayer in vitro under the condition of McCoy's 5A medium containing 10% fetal bovine serum and 1% penicillin and streptomycin, and the culture was carried out at 37° C. with 5% CO2. The cells were digested with trypsin three times a week for passaging. When the saturation degree of the cells was 80-90%, the cells were collected, counted and inoculated. 0.1 mL (5×10^6 cells) of HCT116-MTAP-KO cells were subcutaneously inoculated on the right back of each mouse. On day 16 after inoculation of the cells, the mean tumor volume reached 154 mm^3. The mice were randomly grouped for administration and intragastrically dosed once daily. Changes in body weight and tumor volume were recorded. After a certain number of days of administration, the experiment was ended. Tumor volume changes and mouse body weight changes were counted and analyzed. AG270 (CAS: 2201056-66-6) was the positive control compound."}, "[9]": {"system": "Human pancreatic cancer cells KP-4", "experiment": "Mouse xenograft tumor pharmacodynamic model, KP-4", "assay_type": "in vivo", "conditions": "KP-4 xenograft, PO 200 mg/kg once a day, 29 days of administration", "protocol": "as §2\nHuman pancreatic cancer cells KP-4 were cultured in monolayer in vitro under the condition of 1640 medium containing […] and […] and streptomycin, and the culture was carried out at 37° C. with 5% CO2. The cells were digested with trypsin three times a week for passaging. When the saturation degree of the cells was 80-90%, the cells were collected, counted and inoculated. 0.1 mL (5×10^6 cells) of KP-4 cells were subcutaneously inoculated on the right back of each mouse. On day 34 after inoculation of the cells, the mean tumor volume reached 154 mm^3. The mice were randomly grouped for administration and intragastrically dosed once daily. Changes in body weight and tumor volume were recorded. After 29 days of administration, the experiment was ended. Tumor volume changes and mouse body weight changes were counted and analyzed. AG270 (CAS: 2201056-66-6) was the positive control compound."}, "[10]": {"conditions": "IC50 score, read-out: Tumor cell 5-day relative growth inhibition (HCT116-MTAP−/−) (nM), score"}, "[11]": {"conditions": "IC50 value, read-out: Tumor cell 5-day relative growth inhibition (HCT116-MTAP−/−)"}, "[12]": {"conditions": "IC50 score, read-out: Tumor cell 5-day relative growth inhibition (HCT116-MTAP+/+) (nM), score"}, "[13]": {"conditions": "IC50 value, read-out: Tumor cell 5-day relative growth inhibition (HCT116-MTAP+/+)"}}, "note": "Like-named read-outs stand apart in the source and are kept apart here."}
{"molecule": "Cn1cc2c(n1)c(=O)n(-c1cccnc1)c1nc(C(F)(F)F)ccc21", "note": "[Compound B72]", "values": [{"measurement": "IC50", "setting": "[1]; IC50 score class, read-out: Cell 96 h SDMA Inhibition (HCT116-MTAP−/−) (score)", "result": "< 200", "unit": "nM"}, {"measurement": "IC50", "setting": "[1]; read-out: Cell 96 h SDMA Inhibition (HCT116-MTAP−/−)", "result": 76.9, "unit": "nM"}, {"measurement": "IC50", "setting": "[2]; IC50 score class, read-out: Cell 96 h SDMA Inhibition (HCT116-MTAP+/+) (score)", "result": "200 to 1000", "unit": "nM"}, {"measurement": "IC50", "setting": "[2]; read-out: Cell 96 h SDMA inhibition (HCT116-MTAP+/+)", "result": 480, "unit": "nM"}, {"measurement": "IC50", "setting": "[3]; [10]", "result": "< 500", "unit": "nM"}, {"measurement": "IC50", "setting": "[3]; [11]", "result": 138, "unit": "nM"}, {"measurement": "IC50", "setting": "[4]; [12]", "result": "500 to 2000", "unit": "nM"}, {"measurement": "IC50", "setting": "[4]; [13]", "result": 1680, "unit": "nM"}, {"measurement": "IC50", "setting": "DOHH-2 cell strain; IC50 score, read-out: Tumor cell 5-day relative growth inhibition (DOHH-2) (nM), score", "result": "500 to 2000", "unit": "nM"}, {"measurement": "IC50", "setting": "DOHH-2 cell strain; IC50 value, read-out: Tumor cell 5-day relative growth inhibition (DOHH-2)", "result": 640, "unit": "nM"}, {"measurement": "AUC", "setting": "[5]; IV 2 mg/kg", "result": 7.43, "unit": "µM·h"}, {"measurement": "clearance", "setting": "[5]; IV 2 mg/kg", "result": 12.8, "unit": "mL/min/kg"}, {"measurement": "half-life", "setting": "[5]; IV 2 mg/kg", "result": 46.8, "unit": "min"}, {"measurement": "Vd", "setting": "[5]; IV 2 mg/kg, read-out: Vz", "result": 0.9, "unit": "L/kg"}, {"measurement": "AUC", "setting": "[5]; PO 10 mg/kg", "result": 65, "unit": "µM·h"}, {"measurement": "half-life", "setting": "[5]; PO 10 mg/kg", "result": 57, "unit": "min"}, {"measurement": "IC50", "setting": "hERG potassium current", "result": "> 30000", "unit": "nM"}]}
{"molecule": "Cn1cc2c(n1)c(=O)n(-c1ccc(OC(F)F)cc1)c1nc(C(F)(F)F)ccc21", "note": "[Compound B188]", "values": [{"measurement": "IC50", "setting": "[6]; IC50 score class, read-out: MAT2A Inhibition (score)", "result": "< 100", "unit": "nM"}, {"measurement": "IC50", "setting": "[6]; read-out: MAT2A Inhibition", "result": 99.4, "unit": "nM"}, {"measurement": "IC50", "setting": "[3]; [10]", "result": "≥ 2000", "unit": "nM"}, {"measurement": "IC50", "setting": "[3]; [11]", "result": "> 10000", "unit": "nM"}, {"measurement": "IC50", "setting": "[4]; [12]", "result": "≥ 2000", "unit": "nM"}, {"measurement": "IC50", "setting": "[4]; [13]", "result": "> 10000", "unit": "nM"}, {"measurement": "FaSSIF (pH = 6.5) (μg/mL)", "setting": "[7]", "result": 7.4, "unit": "μg/mL"}]}
{"molecule": "AG270 [reference compound]", "values": [{"measurement": "Tumor growth inhibition percentage (TGI)", "setting": "[8]", "result": "once a day TGI = 33.82%"}, {"measurement": "Tumor growth inhibition percentage (TGI)", "setting": "[9]", "result": "once a day TGI = 57.48%"}]}
